For one experiment, the target named is EGFR (L858R/T790M) (Homo sapiens, UniProt P00533, L858R/T790M). Kind of experiment: HotSpot radiometric kinase assay, inhibition of EGFR L858R/T790M mutant. The experiment is classed as biochemical. Conditions: 33P ATP, room temperature, 120 m. The procedure:
(§1) Biochemical Assays for inhibition of wild-type and mutant EGFRs
(§2) Briefly, specific kinase/substrate pairs along with required cofactors were prepared in reaction buffer; 20 mM HEPES pH 7.5, 10 mM […], 1 mM EGTA, 0.02% Brij35, 0.02 mg/ml BSA, 0.1 mM Na3VO4, 2 mM DTT, 1% DMSO. Compounds were delivered into the reaction, followed ~20 minutes later by addition of a mixture of ATP (Sigma, St. Louis MO) and ^33P ATP (Perkin Elmer, Waltham MA) to a final concentration of […]. Reactions were carried out at room temperature for 120 m, followed by spotting of the reactions onto P81 ion exchange filter paper (Whatman Inc., Piscataway, NJ). Unbound phosphate was removed by extensive washing of filters in 0.75% phosphoric acid. […] IC50 values and curve fits were obtained using Prism (GraphPad Software).

A further experiment addresses EGFR (D770_N771insNPG) (Homo sapiens, UniProt P00533, INS770NPG). The experiment in a line: HotSpot radiometric kinase assay, inhibition of EGFR (D770_N771insNPG) mutant. The experiment is classed as biochemical. Conditions: 33P ATP, room temperature, 120 m. A digest of the protocol:
(§3)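 Kinase/substrate pairs in 20 mM HEPES pH 7.5, 10 mM MgCl2, 1 mM EGTA, 0.02% Brij35, 0.02 mg/ml BSA, 0.1 mM Na3VO4, 2 mM DTT, 1% DMSO, preincubated ~20 min with compound. Reaction started with ATP/33P-ATP ([…]), run 120 min at room temperature; phosphorylation read by P81 filter binding, IC50 from curve fits.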

A further experiment deals with NCI-H1975 cells. Kind of experiment: 5-Day CellTiter Glo (CTG) cell proliferation assay, NCI-H1975. The experiment is classed as cell-based. Conditions: Homo sapiens; NCI-H1975 cells (L858R/T790M EGFR), 5-day CTG proliferation, 120 hours; read-out: H1975 IC50. A digest of the protocol: (§4)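 Luminescent ATP signal (CellTiter-Glo 2.0) after 120 hours of compound exposure gave IC50 values. PC-9 and HCC827 harbour EGFR d746-750; NCI-H1975 harbours L858R/T790M.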
Background: ATP-based viability assays read luminescence as a measure of living cells.

A further experiment concerns HCC827 cells. The experiment in a line: 5-Day CellTiter Glo (CTG) cell proliferation assay, HCC827. The class given is cell-based. Conditions: Homo sapiens; HCC827 cells (d746-750 EGFR), 5-day CTG proliferation, 120 hours; read-out: HCC827 IC50. The method in brief: as §4
Experiment [1] has as its target T1, pEGFR, NCI-H1975 cells (L858R/T790M EGFR) (Homo sapiens, UniProt P00533, L858R/T790M).
T1 construct: pEGFR (Tyr1068) TR-FRET
The experiment in a line: Cellular EGFR phosphorylation assay (LANCE Ultra TR-FRET) in NCI-H1975 cells. Conditions: 4 hours at 37° C., read-out: H1975 pEGFR IC50. The class given is cell-based. A digest of the protocol: (§5)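 pEGFR Tyr1068 TR-FRET readout, lysates after 4 h compound exposure (37 °C, 5% CO2); 9-dose 3-fold series. A431 only: EGF 40 ng/mL for last 10 min. IC50 from curve fit.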

The target of the next experiment is EGFR WT (Homo sapiens, UniProt P00533). The experiment in a line: HotSpot radiometric kinase assay, inhibition of EGFR WT. The experiment is classed as biochemical. Conditions: 33P ATP, room temperature, 120 m. As for the experimental part: as §1, §2
The next experiment relates to PC-9 cells. Kind of experiment: 5-Day CellTiter Glo (CTG) cell proliferation assay, PC-9. The class given is cell-based. Conditions: Homo sapiens; PC-9 cells (d746-750 EGFR), 5-day CTG proliferation, 120 hours; read-out: PC-9 IC50. The method in brief:
as §4

A further experiment concerns the target EGFR (D746-750) (Homo sapiens, UniProt P00533, DEL746-750). Kind of experiment: HotSpot radiometric kinase assay, inhibition of EGFR 746-750 mutant. The class given is biochemical. Conditions: 33P ATP, room temperature, 120 m. The method in brief:
as §3

In another experiment the target is EGFR (D746-750/C797S) (Homo sapiens, UniProt P00533, C797S/DEL746-750). The experiment in a line: HotSpot radiometric kinase assay, inhibition of EGFR 746-750/C797S mutant. The class given is biochemical. Conditions: 33P ATP, room temperature, 120 m. A digest of the protocol:
as §3

In the next experiment the target is EGFR (L858R) (Homo sapiens, UniProt P00533, L858R). Kind of experiment: HotSpot radiometric kinase assay, inhibition of EGFR L858R mutant. The experiment is classed as biochemical. Conditions: 33P ATP, room temperature, 120 m. As for the experimental part:
as §1, §2

The target of experiment [2] is T2, pEGFR, A431 cells (wildtype EGFR) (Homo sapiens, UniProt P00533).
T2 construct: pEGFR (Tyr1068) TR-FRET
Kind of experiment: Cellular EGFR phosphorylation assay (LANCE Ultra TR-FRET) in A431 cells. The class given is cell-based. Conditions: 4 hours at 37° C., 40 ng/mL EGF for the final 10 minutes, read-out: A431 pEGFR IC50. The method in brief: as §5
A general note: Time-resolved FRET reads energy transfer from a long-lived donor to a nearby acceptor.

For another experiment, the target named is EGFR (L858R/T790M/C797S) (Homo sapiens, UniProt P00533, C797S/L858R/T790M). The experiment in a line: HotSpot radiometric kinase assay, inhibition of EGFR L858R/T790M/C797S mutant. The class given is biochemical. Conditions: 33P ATP, room temperature, 120 m. The method in brief:
as §3

Experiment [3] has as its target T3, pEGFR, PC-9 cells (d746-750 EGFR) (Homo sapiens, UniProt P00533, DEL746-750).
T3 construct: pEGFR (Tyr1068) TR-FRET
The experiment in a line: Cellular EGFR phosphorylation assay (LANCE Ultra TR-FRET) in PC-9 cells. The experiment is classed as cell-based. Conditions: 4 hours at 37° C., read-out: PC-9 pEGFR IC50. A digest of the protocol: as §5

In experiment [4] the test system is BaF3 cells with engineered EGFR L858R/C797S. Kind of experiment: 3-Day CellTiter Glo (CTG) cell proliferation assay, BaF3 EGFR L858R/C797S. The class given is cell-based. Conditions: Mus musculus, 3-day CTG proliferation, 72 hours. The method in brief:
(§6)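 Growth inhibition in transgene-bearing BaF3 lines was scored after three days of compound treatment by CellTiter-Glo 2.0 ATP luminescence, yielding IC50 values.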

In experiment [5] the test system is BaF3 cells with engineered EGFR L858R/T790M/C797S. Kind of experiment: 3-Day CellTiter Glo (CTG) cell proliferation assay, BaF3 EGFR L858R/T790M/C797S. The class given is cell-based. Conditions: Mus musculus, 3-day CTG proliferation, 72 hours. The method in brief:
as §6

pIC50: −log10 of the molar value.

Broadly, the pIC50 is the IC50 on a negative log10 scale, so that one unit is a factor of ten.

Chain of EGFR (D746-750/C797S) (P00533 with tags, fused parts or gaps DEL746-750/C797S): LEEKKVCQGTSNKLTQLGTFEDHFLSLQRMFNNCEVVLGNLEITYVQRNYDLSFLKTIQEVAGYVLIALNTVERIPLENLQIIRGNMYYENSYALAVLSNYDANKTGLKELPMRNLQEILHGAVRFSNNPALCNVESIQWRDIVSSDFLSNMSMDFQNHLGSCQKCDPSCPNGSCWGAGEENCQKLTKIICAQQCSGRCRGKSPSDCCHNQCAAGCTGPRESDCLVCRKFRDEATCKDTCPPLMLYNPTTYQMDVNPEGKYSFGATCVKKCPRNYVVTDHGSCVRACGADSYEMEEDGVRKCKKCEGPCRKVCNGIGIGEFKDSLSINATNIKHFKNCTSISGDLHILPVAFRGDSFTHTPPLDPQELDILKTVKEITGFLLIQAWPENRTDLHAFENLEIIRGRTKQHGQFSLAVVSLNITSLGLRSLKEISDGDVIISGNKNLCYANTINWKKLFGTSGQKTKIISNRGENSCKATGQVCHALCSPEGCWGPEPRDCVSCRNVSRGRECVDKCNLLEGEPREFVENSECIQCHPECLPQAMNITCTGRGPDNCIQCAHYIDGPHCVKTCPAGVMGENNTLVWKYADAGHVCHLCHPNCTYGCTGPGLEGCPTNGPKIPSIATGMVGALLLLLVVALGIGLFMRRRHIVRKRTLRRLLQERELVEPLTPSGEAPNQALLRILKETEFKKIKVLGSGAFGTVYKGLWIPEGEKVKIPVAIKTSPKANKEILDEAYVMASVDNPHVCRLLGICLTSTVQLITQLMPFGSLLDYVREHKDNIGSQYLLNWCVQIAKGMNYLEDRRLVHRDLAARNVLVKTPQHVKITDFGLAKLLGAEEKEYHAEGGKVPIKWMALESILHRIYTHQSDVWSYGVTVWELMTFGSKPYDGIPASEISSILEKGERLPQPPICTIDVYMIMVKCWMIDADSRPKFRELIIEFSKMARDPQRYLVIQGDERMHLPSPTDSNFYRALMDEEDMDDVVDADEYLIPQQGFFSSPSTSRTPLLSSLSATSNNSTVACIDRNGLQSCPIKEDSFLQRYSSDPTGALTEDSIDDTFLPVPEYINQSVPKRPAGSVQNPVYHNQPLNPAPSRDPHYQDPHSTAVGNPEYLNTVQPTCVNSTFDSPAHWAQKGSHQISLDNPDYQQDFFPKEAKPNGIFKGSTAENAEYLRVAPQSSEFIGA
Chain of EGFR (L858R) (P00533 25-1210 L858R): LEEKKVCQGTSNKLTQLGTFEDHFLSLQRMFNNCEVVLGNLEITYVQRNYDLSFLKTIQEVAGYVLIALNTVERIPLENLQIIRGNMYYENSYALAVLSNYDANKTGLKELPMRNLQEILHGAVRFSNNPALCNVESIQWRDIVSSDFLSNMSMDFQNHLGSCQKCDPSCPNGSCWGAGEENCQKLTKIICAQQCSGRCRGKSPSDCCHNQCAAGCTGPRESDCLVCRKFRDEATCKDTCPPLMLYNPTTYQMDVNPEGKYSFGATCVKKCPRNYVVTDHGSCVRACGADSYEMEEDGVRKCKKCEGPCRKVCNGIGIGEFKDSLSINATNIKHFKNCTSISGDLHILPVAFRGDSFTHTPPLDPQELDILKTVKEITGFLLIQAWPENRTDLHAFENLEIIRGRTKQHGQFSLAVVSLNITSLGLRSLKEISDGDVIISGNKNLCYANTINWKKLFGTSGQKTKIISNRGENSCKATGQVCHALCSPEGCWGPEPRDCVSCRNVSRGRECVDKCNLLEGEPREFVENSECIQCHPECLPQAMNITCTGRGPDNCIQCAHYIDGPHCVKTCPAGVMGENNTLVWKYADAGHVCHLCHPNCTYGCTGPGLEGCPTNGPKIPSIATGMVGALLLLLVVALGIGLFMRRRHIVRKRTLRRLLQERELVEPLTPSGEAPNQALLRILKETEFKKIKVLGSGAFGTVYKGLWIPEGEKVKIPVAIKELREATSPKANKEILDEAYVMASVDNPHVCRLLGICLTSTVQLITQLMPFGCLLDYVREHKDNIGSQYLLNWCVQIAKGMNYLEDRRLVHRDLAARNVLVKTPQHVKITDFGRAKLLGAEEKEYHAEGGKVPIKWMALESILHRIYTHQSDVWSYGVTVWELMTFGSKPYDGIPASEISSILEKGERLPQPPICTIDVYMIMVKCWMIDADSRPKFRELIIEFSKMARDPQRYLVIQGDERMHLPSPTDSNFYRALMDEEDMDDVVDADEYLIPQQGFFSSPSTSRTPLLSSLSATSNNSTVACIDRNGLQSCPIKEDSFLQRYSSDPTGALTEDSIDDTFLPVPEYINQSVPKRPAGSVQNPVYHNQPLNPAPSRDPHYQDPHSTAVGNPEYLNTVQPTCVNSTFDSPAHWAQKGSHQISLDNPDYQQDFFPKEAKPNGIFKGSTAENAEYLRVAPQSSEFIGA
T3 sequence (P00533 with tags, fused parts or gaps DEL746-750): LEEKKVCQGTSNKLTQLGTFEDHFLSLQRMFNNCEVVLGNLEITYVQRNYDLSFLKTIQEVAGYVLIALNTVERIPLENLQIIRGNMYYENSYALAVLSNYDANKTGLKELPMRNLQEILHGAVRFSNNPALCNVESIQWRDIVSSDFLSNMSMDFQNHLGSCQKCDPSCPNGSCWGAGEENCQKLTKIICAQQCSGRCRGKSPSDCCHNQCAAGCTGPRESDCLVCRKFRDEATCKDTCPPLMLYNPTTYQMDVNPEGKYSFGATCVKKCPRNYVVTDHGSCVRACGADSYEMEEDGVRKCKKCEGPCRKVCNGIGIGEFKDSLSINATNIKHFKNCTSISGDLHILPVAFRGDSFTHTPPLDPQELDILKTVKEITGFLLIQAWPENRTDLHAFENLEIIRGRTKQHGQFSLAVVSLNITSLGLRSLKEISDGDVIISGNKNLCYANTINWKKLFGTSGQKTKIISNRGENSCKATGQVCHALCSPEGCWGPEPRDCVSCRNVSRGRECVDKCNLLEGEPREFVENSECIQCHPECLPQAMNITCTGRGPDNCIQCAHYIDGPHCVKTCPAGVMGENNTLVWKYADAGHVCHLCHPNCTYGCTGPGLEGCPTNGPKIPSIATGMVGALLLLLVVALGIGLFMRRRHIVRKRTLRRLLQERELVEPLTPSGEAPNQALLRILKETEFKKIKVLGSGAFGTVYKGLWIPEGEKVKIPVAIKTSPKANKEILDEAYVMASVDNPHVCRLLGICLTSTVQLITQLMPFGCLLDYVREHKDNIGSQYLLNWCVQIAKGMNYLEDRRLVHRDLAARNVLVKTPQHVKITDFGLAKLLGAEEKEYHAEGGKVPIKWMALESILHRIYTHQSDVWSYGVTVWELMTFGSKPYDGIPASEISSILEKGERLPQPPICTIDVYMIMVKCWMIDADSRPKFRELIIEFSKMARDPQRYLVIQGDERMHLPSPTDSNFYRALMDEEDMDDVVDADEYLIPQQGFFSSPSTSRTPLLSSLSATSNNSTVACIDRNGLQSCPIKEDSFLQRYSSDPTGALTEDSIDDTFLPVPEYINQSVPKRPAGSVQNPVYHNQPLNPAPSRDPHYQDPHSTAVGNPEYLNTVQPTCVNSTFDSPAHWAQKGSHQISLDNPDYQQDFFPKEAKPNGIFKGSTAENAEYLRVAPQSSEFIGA
Chain of EGFR (D746-750) (P00533 with tags, fused parts or gaps DEL746-750): as above

`CC(C)Oc1nn(CCO)c2c1/C=C/c1n[nH]c3cnc(cc13)-c1cnn(C)c1O[C@@H](C)CN(C)C2` [Ex. 5, 2-[(10S,17E)-8,10,12-trimethyl-16-[(propan-2-yl)oxy]-2,8,10,11,12,13-hexahydro-14H-5,3-(azenometheno)tripyrazolo[3,4-f:3′,4′-j:4″,3″-n][1,4]oxazacyclopentadecin-14-yl]ethan-1-ol]: the pIC50 on EGFR (L858R/T790M) is 9.96; on EGFR (D770_N771insNPG), 10.10; with NCI-H1975 cells, 8.31; in the experiment with HCC827 cells, 9.00; in experiment [1], 8.40; against EGFR WT it was 10.10. Besides, the pIC50 with PC-9 cells was 7.47; against EGFR (D746-750) it was 10.10; against EGFR (D746-750/C797S), 9.35; against EGFR (L858R) it was 9.89; in experiment [2] it was 7.54; at EGFR (L858R/T790M/C797S), 10.00. The negative-log IC50 (pIC50) in [3] was 8.19.

As to `CCOc1nn(CCO)c2c1/C=C/c1n[nH]c3cnc(cc13)-c1cnn(C)c1O[C@H](C)CN(CC)C2` [Ex. 6, 2-[(10R,17E)-16-ethoxy-12-ethyl-8,10-dimethyl-2,8,10,11,12,13-hexahydro-14H-5,3-(azenometheno)tripyrazolo[3,4-f:3′,4′-j:4″,3″-n][1,4]oxazacyclopentadecin-14-yl]ethan-1-ol], the negative-log IC50 (pIC50) against EGFR (L858R/T790M) was 9.82; at EGFR (D770_N771insNPG), 10.15; with NCI-H1975 cells, 7.55; with HCC827 cells, 8.70; in experiment [1] it was 7.96; against EGFR WT it was 9.89. The pIC50 in the experiment with PC-9 cells was 7.56; on EGFR (D746-750) it was 10.05; on EGFR (D746-750/C797S), 9.31; against EGFR (L858R), 9.80; in experiment [2], 7.37; against EGFR (L858R/T790M/C797S) it was 9.92. In addition, the pIC50 in [3] was 8.16.

`CCOc1nn(CCO)c2c1/C=C/c1n[nH]c3cnc(cc13)-c1cnn(C)c1OC[C@H](C)N(CC)C2` [Ex. 7, 2-[(11S,17E)-16-ethoxy-12-ethyl-8,11-dimethyl-2,8,10,11,12,13-hexahydro-14H-5,3-(azenometheno)tripyrazolo[3,4-f:3′,4′-j:4″,3″-n][1,4]oxazacyclopentadecin-14-yl]ethan-1-ol]: the pIC50 against EGFR (L858R/T790M) was 9.55; at EGFR (D770_N771insNPG), 8.96; in the experiment on NCI-H1975 cells, 7.32; in the experiment with HCC827 cells, 8.29; in [1], 7.85; against EGFR WT, 8.94. In addition, the pIC50 in the experiment on PC-9 cells was 7.22; at EGFR (D746-750), 9.54; against EGFR (D746-750/C797S), 9.13; on EGFR (L858R) it was 9.05; in experiment [2] it was 7.15; against EGFR (L858R/T790M/C797S), 9.64. The pIC50 in [3] was 7.61.

With `CCN1Cc2c(c(OC(C)C)nn2CCO)/C=C/c2n[nH]c3cnc(cc23)-c2cnn(C)c2O[C@@H](C)C1` [Ex. 9, 2-[(10S,17E)-12-ethyl-8,10-dimethyl-16-[(propan-2-yl)oxy]-2,8,10,11,12,13-hexahydro-14H-5,3-(azenometheno)tripyrazolo[3,4-f:3′,4′-j:4″,3″-n][1,4]oxazacyclopentadecin-14-yl]ethan-1-ol], the pIC50 on EGFR (L858R/T790M) is 9.35; on EGFR (D770_N771insNPG) it was 9.54; in the experiment with NCI-H1975 cells, 8.49; in [4], 9.72; with HCC827 cells, 9.41; in [1], 8.38. Besides, the pIC50 was 9.03 in [5]; 9.74 against EGFR WT; 7.92 with PC-9 cells; 9.17 against EGFR (D746-750); 9.48 on EGFR (D746-750/C797S); 9.35 on EGFR (L858R). Besides, the pIC50 in experiment [2] is 7.70; against EGFR (L858R/T790M/C797S), 9.31; in experiment [3], 8.46.

The values above are taken from patent US20260317344A1, “EGFR INHIBITORS FOR TREATING DISEASE” (BLOSSOMHILL THERAPEUTICS, INC., priority 2023, published 2026).
